{
  "source": "patent US20040029129A1",
  "about": "“Identification of essential genes in microorganisms” (priority 2001, published 2004)",
  "key": {"[1]": {"system": "Staphylococcus aureus cells containing antisense to the Beta subunit of DNA gyrase (S1M10000001F08)", "test": "Antibiotic potency in cells with xylose-induced antisense to the Beta subunit of DNA gyrase", "type": "cell-based", "settings": "12 mM xylose versus 0 mM xylose; FIG. 10"}, "[2]": {"system": "E. coli transformed with IPTG-inducible antisense clones", "test": "Cell-based assay using antisense complementary to genes encoding ribosomal proteins (antibiotic sensitivity with and without IPTG)", "settings": "with IPTG versus without IPTG; for Sensitivity to antibiotic of cells transcribing antisense to protein synthesis genes: AS-rplL, AS-rplW, AS-rplL/J and other protein synthesis gene clones"}, "[3]": {"system": "Staphylococcus aureus cells overexpressing a gene product required for proliferation", "test": "Growth of strains overexpressing a proliferation-required gene (XylT5 promoter) at elevated antibiotic concentrations", "type": "cell-based", "settings": "for resistance conferred by overexpression of the defB gene: defB (peptide deformylase) overexpressed, FIG. 16; for resistance conferred by overexpression of the fabF gene: fabF (β keto-acyl carrier protein synthase II) overexpressed, FIG. 17; for resistance conferred by overexpression of the fabI gene: fabI (enoyl-acyl carrier protein reductase) overexpressed, FIG. 14; for resistance conferred by overexpression of the folA gene: folA (dihydrofolate reductase) overexpressed, FIG. 15"}, "[4]": {"system": "overexpression of the fabI gene", "test": "Growth of cells overexpressing the fabI gene in the presence of antibiotics", "type": "cell-based", "settings": "FIG. 14"}, "[5]": {"system": "cells which overexpress the folA gene product", "test": "Growth of cells overexpressing the folA gene in the presence of antibiotics", "type": "cell-based", "settings": "for resistance conferred by overexpression of the folA gene: FIG. 15"}, "[6]": {"system": "overexpression of the fabF gene (β keto-acyl carrier protein synthase)", "test": "Growth of cells overexpressing the fabF gene in the presence of antibiotics", "type": "cell-based", "settings": "FIG. 17"}, "[7]": {"system": "cells which overexpress the defB gene product", "test": "Growth of cells overexpressing the defB gene in the presence of antibiotics", "type": "cell-based", "settings": "FIG. 16"}, "[8]": {"system": "Strains of Staphylococcus aureus containing plasmids encoding antisense nucleic acids", "test": "Selective disappearance of amplification products of strains underexpressing the antibiotic's target (mixed antisense strains)", "type": "cell-based", "settings": "rich medium"}, "[9]": {"system": "mixture of nine S. aureus strains overexpressing fabF, defB, folA, fabI, ileS, fusA, gyrB, murA, rpoB", "test": "Selection of a strain overexpressing the target gene product from a mixture of nine overexpressing strains", "type": "cell-based", "settings": "folA gene; at least 60 colonies"}},
  "data": [
    {"molecule": "CO/N=C(\\C(=O)N[C@@H]1C(=O)N2C(C(=O)O)=C(COC(C)=O)CS[C@H]12)c1csc(N)n1", "note": "[Cefotaxime]", "values": [
      {"measurement": "Potency in induced cells as compared to uninduced cells", "setting": "[1]", "result": "not significantly different"}
    ]},
    {"molecule": "CO[C@@]1(NC(=O)Cc2cccs2)C(=O)N2C(C(=O)O)=C(COC(N)=O)CS[C@@H]21", "note": "[Cefoxitin]", "values": [
      {"measurement": "Potency in induced cells as compared to uninduced cells", "setting": "[1]", "result": "not significantly different"}
    ]},
    {"molecule": "CC[C@H]1OC(=O)[C@H](C)[C@@H](O[C@H]2C[C@@](C)(OC)[C@@H](O)[C@H](C)O2)[C@H](C)[C@@H](O[C@@H]2O[C@H](C)C[C@H](N(C)C)[C@H]2O)[C@](C)(O)C[C@@H](C)C(=O)[C@H](C)[C@@H](O)[C@]1(C)O", "note": "[Erythromycin]", "values": [
      {"measurement": "Sensitivity to antibiotic of cells transcribing antisense to genes not involved in protein synthesis", "setting": "[2]; AS-atpB/E, AS-visC, AS-elaD, AS-yohH", "result": "do not"},
      {"measurement": "Sensitivity to antibiotic of cells transcribing antisense to protein synthesis genes", "setting": "[2]", "result": "increased sensitivity"}
    ]},
    {"molecule": "CC(=O)O[C@H]1C[C@@]2(C)[C@@H](C[C@@H](O)[C@H]3[C@@]4(C)CC[C@@H](O)[C@@H](C)[C@@H]4CC[C@@]32C)/C1=C(\\CCC=C(C)C)C(=O)O", "note": "[Fusidic acid]", "values": [
      {"measurement": "Potency in induced cells as compared to uninduced cells", "setting": "[1]", "result": "not significantly different"}
    ]},
    {"molecule": "CCC[C@@H]1C[C@@H](C(=O)N[C@@H]([C@H]2O[C@H](SC)[C@H](O)[C@@H](O)[C@H]2O)[C@@H](C)O)N(C)C1", "note": "[Lincomycin]", "values": [
      {"measurement": "Potency in induced cells as compared to uninduced cells", "setting": "[1]", "result": "not significantly different"}
    ]},
    {"molecule": "CCn1cc(C(=O)O)c(=O)c2ccc(C)nc21", "note": "[Nalidixic acid]", "values": [
      {"measurement": "Sensitivity to antibiotic of cells transcribing antisense to protein synthesis genes", "setting": "[2]", "result": "does not show increased sensitivity"}
    ]},
    {"molecule": "NC[C@H]1O[C@H](O[C@H]2[C@H](O)[C@@H](O[C@H]3O[C@H](CO)[C@@H](O)[C@H](N)[C@H]3O)[C@H](N)C[C@@H]2N)[C@H](N)C[C@@H]1O", "note": "[Tobramycin]", "values": [
      {"measurement": "Potency in induced cells as compared to uninduced cells", "setting": "[1]", "result": "not significantly different"}
    ]},
    {"molecule": "CN[C@H](CC(C)C)C(=O)N[C@H]1C(=O)N[C@@H](CC(N)=O)C(=O)N[C@H]2C(=O)N[C@H]3C(=O)N[C@H](C(=O)N[C@H](C(=O)O)c4cc(O)cc(O)c4-c4cc3ccc4O)[C@H](O)c3ccc(c(Cl)c3)Oc3cc2cc(c3O[C@@H]2O[C@H](CO)[C@@H](O)[C@H](O)[C@H]2O[C@H]2C[C@](C)(N)[C@H](O)[C@H](C)O2)Oc2ccc(cc2Cl)[C@H]1O", "note": "[Vancomycin]", "values": [
      {"measurement": "Potency in induced cells as compared to uninduced cells", "setting": "[1]", "result": "not significantly different"}
    ]},
    {"molecule": "C/C=C/C/C=C/CCC(=O)[C@H]1O[C@H]1C(N)=O", "note": "[cerulenin]", "values": [
      {"measurement": "resistance conferred by overexpression of the defB gene", "setting": "[3]", "result": "did not confer resistance"},
      {"measurement": "resistance conferred by overexpression of the fabF gene", "setting": "[3]", "result": "conferred resistance"},
      {"measurement": "resistance conferred by overexpression of the fabI gene", "setting": "[3]", "result": "did not confer resistance"},
      {"measurement": "resistance conferred by overexpression of the folA gene", "setting": "[3]", "result": "did not confer resistance"},
      {"measurement": "resistance conferred by overexpression of the fabI gene", "setting": "[4]", "result": "does not confer resistance"},
      {"measurement": "resistance conferred by overexpression of the folA gene", "setting": "[5]", "result": "does not confer resistance"},
      {"measurement": "resistance conferred by overexpression of the fabF gene", "setting": "[6]", "result": "conferred resistance"},
      {"measurement": "resistance conferred by overexpression of the defB gene", "setting": "[7]", "result": "does not confer resistance"},
      {"measurement": "IC50", "setting": "[8]; read-out: IC50 (middle concentration used)", "result": 9, "unit": "µg/mL"}
    ]},
    {"molecule": "C/C(=C\\C(=O)OCCCCCCCCC(=O)O)C[C@@H]1OC[C@H](C[C@@H]2O[C@H]2[C@@H](C)[C@H](C)O)[C@@H](O)[C@H]1O", "note": "[mupriocin]", "values": [
      {"measurement": "IC50 (middle concentration used)", "setting": "[8]", "result": 8.6, "unit": "µg/mL"}
    ]},
    {"molecule": "CO[C@@H]1[C@@H](OC(N)=O)[C@@H](O)[C@H](Oc2ccc3c(O)c(NC(=O)c4ccc(O)c(CC=C(C)C)c4)c(=O)oc3c2C)OC1(C)C", "note": "[novobiocin]", "values": [
      {"measurement": "Potency in induced cells as compared to uninduced cells", "setting": "[1]", "result": "significantly different"}
    ]},
    {"molecule": "Oc1cc(Cl)ccc1Oc1ccc(Cl)cc1Cl", "note": "[triclosan]", "values": [
      {"measurement": "resistance conferred by overexpression of the defB gene", "setting": "[3]", "result": "did not confer resistance"},
      {"measurement": "resistance conferred by overexpression of the fabF gene", "setting": "[3]", "result": "did not confer resistance"},
      {"measurement": "resistance conferred by overexpression of the fabI gene", "setting": "[3]", "result": "conferred resistance"},
      {"measurement": "resistance conferred by overexpression of the folA gene", "setting": "[3]", "result": "did not confer resistance"},
      {"measurement": "resistance conferred by overexpression of the fabI gene", "setting": "[4]", "result": "confers resistance"},
      {"measurement": "resistance conferred by overexpression of the folA gene", "setting": "[5]", "result": "does not confer resistance"},
      {"measurement": "resistance conferred by overexpression of the fabF gene", "setting": "[6]", "result": "does not confer resistance"},
      {"measurement": "resistance conferred by overexpression of the defB gene", "setting": "[7]", "result": "does not confer resistance"}
    ]},
    {"molecule": "COc1cc(Cc2cnc(N)nc2N)cc(OC)c1OC", "note": "[trimethoprim]", "values": [
      {"measurement": "resistance conferred by overexpression of the defB gene", "setting": "[3]", "result": "did not confer resistance"},
      {"measurement": "resistance conferred by overexpression of the fabF gene", "setting": "[3]", "result": "did not confer resistance"},
      {"measurement": "resistance conferred by overexpression of the fabI gene", "setting": "[3]", "result": "did not confer resistance"},
      {"measurement": "resistance conferred by overexpression of the folA gene", "setting": "[3]", "result": "conferred resistance"},
      {"measurement": "Plasmids from colonies which grew in the presence of the antibiotic that contained the target gene", "setting": "[9]", "result": 81, "unit": "%"},
      {"measurement": "Potency in induced cells as compared to uninduced cells", "setting": "[1]", "result": "not significantly different"},
      {"measurement": "resistance conferred by overexpression of the fabI gene", "setting": "[4]", "result": "does not confer resistance"},
      {"measurement": "resistance conferred by overexpression of the folA gene", "setting": "[5]", "result": "confers resistance"},
      {"measurement": "growth of cells overexpressing the folA gene product in presence of antibiotic", "setting": "[5]; at appropriate concentrations of inducer, FIG. 13", "result": "able to grow at elevated concentrations"},
      {"measurement": "resistance conferred by overexpression of the fabF gene", "setting": "[6]", "result": "does not confer resistance"},
      {"measurement": "resistance conferred by overexpression of the defB gene", "setting": "[7]", "result": "does not confer resistance"}
    ]}
  ]
}
